molecular target: unphosphorylated-BTK kinase domain (UP-BTK), GST-tagged human BTK (389-659aa) (Homo sapiens (Human), UniProt Q06187); experiment: BTK Kinase Lanthascreen Binding Assay; settings: Lanthascreen binding, 60 minutes incubation; pIC50 = negative log of the IC50 in molar
Protocol: BTK Kinase Lanthascreen Binding Assay:
A BTK kinase lanthascreen binding assay monitors compound binding to unphosphorylated-BTK kinase domain (UP-BTK), by competing with a fluorescent labeled tracer. […] Data were analyzed using Xlfit™ version 5.3 from ID Business Solutions (Guildford), Microsoft Excel add-in. pIC50 refers to the negative log of the IC50 in molar.

unphosphorylated-BTK kinase domain (UP-BTK), GST-tagged human BTK (389-659aa), sequence (Q06187 389-659): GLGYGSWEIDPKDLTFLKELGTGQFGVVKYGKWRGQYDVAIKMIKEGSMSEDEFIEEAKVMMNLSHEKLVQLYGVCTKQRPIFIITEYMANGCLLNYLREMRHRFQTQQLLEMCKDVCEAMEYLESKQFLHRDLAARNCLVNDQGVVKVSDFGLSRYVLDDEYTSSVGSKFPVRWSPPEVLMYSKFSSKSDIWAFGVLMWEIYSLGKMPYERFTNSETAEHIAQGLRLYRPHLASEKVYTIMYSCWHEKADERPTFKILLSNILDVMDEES

| SMILES | BTK_I_binding pIC50 |
| --- | --- |
| CC(=O)N[C@H]1CCC[C@H]1NC(=O)c1sc2nccc3c2c1NC(=O)N3c1ccc(Oc2ccccc2)nc1C (single isomer, unassigned) [Example 345, N-((1R,2S)-2-Acetamidocyclopentyl)-5-(*S)-(2-methyl-6-phenoxypyridin-3-yl)-4-oxo-4,5-dihydro-3H-1-thia-3,5,8-triazaacenaphthylene-2-carboxamide] | 6.09 |
| CCC(=O)N[C@H]1CCC[C@H]1NC(=O)c1sc2nccc3c2c1NC(=O)N3c1ccc(Oc2ccccc2)nc1C (single isomer, unassigned) [Example 346, 5-(*S)-(2-Methyl-6-phenoxypyridin-3-yl)-4-oxo-N-((1R,2S)-2-propionamidocyclopentyl)-4,5-dihydro-3H-1-thia-3,5,8-triazaacenaphthylene-2-carboxamide] | 6.07 |
| C=CC(=O)N[C@H]1CCC[C@H]1NC(=O)c1sc2nccc3c2c1NC(=O)N3c1ccc(OC2CCOCC2)cc1C (single isomer, unassigned) [Example 347, N-((1R,2S)-2-Acrylamidocyclopentyl)-5-(*R)-(2-methyl-4-((tetrahydro-2H-pyran-4-yl)oxy)phenyl)-4-oxo-4,5-dihydro-3H-1-thia-3,5,8-triazaacenaphthylene-2-carboxamide] | 6.06 |
| Cc1cc(Oc2ccccc2)ncc1N1C(=O)Nc2c(C(=O)N[C@@H]3CC[C@H](N)C3)sc3nccc1c23 (single isomer, unassigned) [Example 355, N-((1R,3S)-3-Aminocyclopentyl)-5-(*S)-(4-methyl-6-phenoxypyridin-3-yl)-4-oxo-4,5-dihydro-3H-1-thia-3,5,8-triazaacenaphthylene-2-carboxamide] | 6.61 |
| CC(=O)N[C@@H]1CCC[C@H]1NC(=O)c1sc2nccc3c2c1NC(=O)N3c1ccc(Oc2ccccc2)nc1C (single isomer, unassigned) [Example 358, N-((1R,2R)-2-Acetamidocyclopentyl)-5-(*S)-(2-methyl-6-phenoxypyridin-3-yl)-4-oxo-4,5-dihydro-3H-1-thia-3,5,8-triazaacenaphthylene-2-carboxamide] | 6.44 |
| C=CC(=O)N[C@H]1CC[C@@H](NC(=O)c2sc3nccc4c3c2NC(=O)N4c2cnc(Oc3ccccc3)cc2C)C1 (single isomer, unassigned) [Example 359, N-((1R,3S)-3-Acrylamidocyclopentyl)-5-(*S)-(4-methyl-6-phenoxypyridin-3-yl)-4-oxo-4,5-dihydro-3H-1-thia-3,5,8-triazaacenaphthylene-2-carboxamide] | 8.05 |
| CC(=O)N[C@H]1CCC[C@@H](NC(=O)c2sc3nccc4c3c2NC(=O)N4c2cnc(Oc3ccccc3)cc2C)C1 (single isomer, unassigned) [Example 360, N-((1R,3S)-3-Acetamidocyclohexyl)-5-(*S)-(4-methyl-6-phenoxypyridin-3-yl)-4-oxo-4,5-dihydro-3H-1-thia-3,5,8-triazaacenaphthylene-2-carboxamide] | 6.26 |
| C=CC(=O)N[C@H]1CCC[C@H]1NC(=O)c1sc2nccc3c2c1NC(=O)N3c1cnc(OCC(C)C)cc1C (single isomer, unassigned) [Example 373, N-((1R,2S)-2-Acrylamidocyclopentyl)-5-(*S)-(6-isobutoxy-4-methylpyridin-3-yl)-4-oxo-4,5-dihydro-3H-1-thia-3,5,8-triazaacenaphthylene-2-carboxamide] | 8.25 |

Results, then the compound that gave them:

| BTK_I_binding pIC50 | SMILES |
| --- | --- |
| 7.94 | CCC(=O)N[C@H]1CC[C@@H](NC(=O)c2sc3nccc4c3c2NC(=O)N4c2cnc(Oc3ccccc3)cc2C)C1 (single isomer, unassigned) [Example 361, 5-(*S)-(4Methyl-6-phenoxypyridin-3-yl)-4-oxo-N-((1R,3S)-3-propionamidocyclopentyl)-4,5-dihydro-3H-1-thia-3,5,8-triazaacenaphthylene-2-carboxamide] |
| 6.31 | C=CC(=O)N[C@H]1CCC[C@@H](NC(=O)c2sc3nccc4c3c2NC(=O)N4c2cnc(Oc3ccccc3)cc2C)C1 (single isomer, unassigned) [Example 363, N-((1R,3S)-3-Acrylamidocyclohexyl)-5-(*S)-(4-methyl-6-phenoxypyridin-3-yl)-4-oxo-4,5-dihydro-3H-1-thia-3,5,8-triazaacenaphthylene-2-carboxamide] |
| 7.93 | C=CC(=O)N[C@H]1CC[C@@H](NC(=O)c2sc3nccc4c3c2NC(=O)N4c2cnc(OCC(C)C)cc2C)C1 (single isomer, unassigned) [Example 365] |
| 8.07 | C=CC(=O)N[C@H]1CC[C@@H](NC(=O)c2sc3nccc4c3c2NC(=O)N4c2cnc(OC3CCCC3)cc2C)C1 (single isomer, unassigned) [Example 366, N-((1R,3S)-3-Acrylamidocyclopentyl)-5-(*S)-(6-(cyclopentyloxy)-4-methylpyridin-3-yl)-4-oxo-4,5-dihydro-3H-1-thia-3,5,8-triazaacenaphthylene-2-carboxamide] |
| 8.23 | C=CC(=O)N[C@H]1CCC[C@H]1NC(=O)c1sc2nccc3c2c1NC(=O)N3c1cnc(OC2CCCC2)cc1C (single isomer, unassigned) [Example 371, N-((1R,2S)-2-Acrylamidocyclopentyl)-5-(*S)-(6-(cyclopentyloxy)-4-methylpyridin-3-yl)-4-oxo-4,5-dihydro-3H-1-thia-3,5,8-triazaacenaphthylene-2-carboxamide] |
| 6.82 | Cc1cc(OC2CCCC2)ncc1N1C(=O)Nc2c(C(=O)N[C@@H]3CCC[C@@H]3N)sc3nccc1c23 (single isomer, unassigned) [Example 374, N-((1R,2S)-2-Aminocyclopentyl)-5-(*S)-(6-(cyclopentyloxy)-4-methylpyridin-3-yl)-4-oxo-4,5-dihydro-3H-1-thia-3,5,8-triazaacenaphthylene-2-carboxamide] |
| 6.92 | Cc1cc(Oc2ccccc2)ncc1N1C(=O)Nc2c(C(=O)N[C@@H]3CCCC[C@@H]3N)sc3nccc1c23 (single isomer, unassigned) [Example 375, N-((1R,2S)-2-Aminocyclohexyl)-5-(*S)-(4-methyl-6-phenoxypyridin-3-yl)-4-oxo-4,5-dihydro-3H-1-thia-3,5,8-triazaacenaphthylene-2-carboxamide] |
| 6.83 | CC(=O)N[C@H]1CCCC[C@H]1NC(=O)c1sc2nccc3c2c1NC(=O)N3c1cnc(Oc2ccccc2)cc1C (single isomer, unassigned) [Example 377, N-((1R,2S)-2-Acetamidocyclohexyl)-5-(*S)-(4-methyl-6-phenoxypyridin-3-yl)-4-oxo-4,5-dihydro-3H-1-thia-3,5,8-triazaacenaphthylene-2-carboxamide] |
| 6.39 | CC(=O)N[C@H]1CCC[C@H]1NC(=O)c1sc2nccc3c2c1NC(=O)N3c1cnc(Oc2ccccc2)cc1C (single isomer, unassigned) [Example 378, N-((1R,2S)-2-Acetamidocyclopentyl)-5-(*S)-(4-methyl-6-phenoxypyridin-3-yl)-4-oxo-4,5-dihydro-3H-1-thia-3,5,8-triazaacenaphthylene-2-carboxamide] |
| 7.20 | CCC(=O)N[C@H]1CCCC[C@H]1NC(=O)c1sc2nccc3c2c1NC(=O)N3c1ccc(Oc2ccccc2)cc1C (single isomer, unassigned) [Example 380, 5-(*S)-(2-Methyl-4-phenoxyphenyl)-4-oxo-N-((1R,2S)-2-propionamidocyclohexyl)-4,5-dihydro-3H-1-thia-3,5,8-triazaacenaphthylene-2-carboxamide] |

same assay, conditions: read-out: BTK_I_binding pIC50 (converted)

| SMILES | IC50 [nM] |
| --- | --- |
| Cc1nc(Oc2ccccc2)ccc1N1C(=O)Nc2c(C(=O)N[C@@H]3CCCC[C@H]3N)sc3nccc1c23 (single isomer, unassigned) [Example 350, N-((1R,2R)-2-Aminocyclohexyl)-5-(*S)-(2-methyl-6-phenoxypyridin-3-yl)-4-oxo-4,5-dihydro-3H-1-thia-3,5,8-triazaacenaphthylene-2-carboxamide] | > 1000 |
| C=CC(=O)N[C@H]1CCCC[C@H]1NC(=O)c1sc2nccc3c2c1NC(=O)N3c1cnc(OCC(C)C)cc1C (single isomer, unassigned) [Example 352, N-((1R,2S)-2-Acrylamidocyclohexyl)-5-(*R)-(6-isobutoxy-4-methylpyridin-3-yl)-4-oxo-4,5-dihydro-3H-1-thia-3,5,8-triazaacenaphthylene-2-carboxamide] | > 1000 |
| CCC(=O)N[C@@H]1CCC[C@H]1NC(=O)c1sc2nccc3c2c1NC(=O)N3c1ccc(Oc2ccccc2)nc1C (single isomer, unassigned) [Example 353, 5-(*S)-(2-Methyl-6-phenoxypyridin-3-yl)-4-oxo-N-((1R,2R)-2-propionamidocyclopentyl)-4,5-dihydro-3H-1-thia-3,5,8-triazaacenaphthylene-2-carboxamide] | > 1000 |
| Cc1cc(Oc2ccccc2)ncc1N1C(=O)Nc2c(C(=O)N[C@@H]3CCC[C@H](N)C3)sc3nccc1c23 (single isomer, unassigned) [Example 356, N-((1R,3S)-3-Aminocyclohexyl)-5-(*S)-(4-methyl-6-phenoxypyridin-3-yl)-4-oxo-4,5-dihydro-3H-1-thia-3,5,8-triazaacenaphthylene-2-carboxamide] | > 1000 |

Results, then the compound that gave them:

| IC50 [nM] | SMILES |
| --- | --- |
| > 1000 | CC(=O)N[C@@H]1CCCC[C@H]1NC(=O)c1sc2nccc3c2c1NC(=O)N3c1ccc(Oc2ccccc2)nc1C (single isomer, unassigned) [Example 362, N-((1R,2R)-2-Acetamidocyclohexyl)-5-(*S)-(2-methyl-6-phenoxypyridin-3-yl)-4-oxo-4,5-dihydro-3H-1-thia-3,5,8-triazaacenaphthylene-2-carboxamide] |
| > 1000 | CCC(=O)N[C@H]1CCCC[C@H]1NC(=O)c1sc2nccc3c2c1NC(=O)N3c1ccc(Oc2ccccc2)nc1C (single isomer, unassigned) [Example 364, 5-(*S)-(2-Methyl-6-phenoxypyridin-3-yl)-4-oxo-N-((1R,2R)-2-propionamidocyclohexyl)-4,5-dihydro-3H-1-thia-3,5,8-triazaacenaphthylene-2-carboxamide] |

Source: US10934310B2, “Inhibitors of Bruton's tyrosine kinase and method of their use” (JANSSEN PHARMACEUTICA NV, priority 2015, dated 2021)
